Assay results from paper doi:10.1101/2024.08.25.609621 (bioRxiv, 2024).
Where “and” joins values, the source holds several entries; their conditions need not be identical. Equal values may be shown once. Read-outs that look alike come from different tables or passages of the source.

What was measured:
[1] = biological target: SARS-CoV-2 NSP3 macrodomain (Mac1) (Severe acute respiratory syndrome coronavirus 2, UniProt P0DTD1); test: biochemical; assay type: binding
[2] = biological target: SARS-CoV-2 NSP3 macrodomain (Mac1), P43 crystal form (Severe acute respiratory syndrome coronavirus 2, UniProt P0DTD1); assay type: binding; settings: for 1-BDC: PanDDA background density correction; for Pandda run, overall: Modeled / Pandda run, overall: Hit: crystal soak; for Pandda run, overall: Hit: TRUE = ligand hit; for Total number of conformations: ligand conformations modeled in Mac1 crystal structure; for 2*(1-BDC) (%): occupancy estimate from PanDDA 1-BDC
[3] = Single dose, concentration 200 μM, read-out: Average % competition
[4] = preliminary screen, compound at 200 μM, mean of 3-4 technical replicates, read-out: % competition in HTRF assay
[5] = ligand modeling in Mac1 crystal soak
[6] = ligand modeling in Mac1 crystal structure

Structure (SMILES) | inhibition at 200 µM [1, 3] | inhibition at 200 µM [1, 4] | Number of isomers bound [2, 5] | PanDDA run, TFA/DMSO background map: 1-BDC ([2]; crystal soak 10 mM) | PanDDA run, TFA/DMSO background map: Hit ([2]; crystal soak 10 mM) | further results
CCC1(O)CCN(c2ncnc3[nH]ccc23)C1 (stereo not drawn) [AVI-612] | 22% | 22% | 1 | – | – | –
O[C@@H]1CN(c2ncnc3[nH]ccc23)C[C@H]1F [AVI-616] | 15% | 15% | 1 | – | – | –
O[C@H]1COC[C@@H]1Nc1ncnc2[nH]ccc12 [AVI-1444, (3R,4S)-4-((7H-pyrrolo[2,3-d]pyrimidin-4-yl)amino)tetrahydrofuran-3-ol] | – | – | 1 | – | – | –
CC(C)(O)[C@@H]1CCCN1c1ncnc2[nH]ccc12 [AVI-1445, (S)-2-(1-(7H-pyrrolo[2,3-d]pyrimidin-4-yl)pyrrolidin-2-yl)propan-2-ol] | – | 75% | 1 | – | – | fold decrease in affinity compared to AVI-607 ([1]; HTRF): ~ 5 fold; Hill slope ([1]; HTRF dose-response fit, Mac1): 1.1; inhibition at 200 µM ([1]; Single dose, concentration 200 μM, read-out: SARS CoV-2 macrodomain HTRF assay: Average % competition): 75%; SARS CoV-2 macrodomain HTRF assay: Hillslope ([1]; dose-response fit): 1.6; Ki ([1]; dose-response, read-out: SARS CoV-2 macrodomain HTRF assay: Ki): 100 µM; Ligand efficiency (binding enery per heavy atom) ([1]; from SARS CoV-2 macrodomain HTRF assay): 0.31; IC50 ([1]; read-out: HTRF IC50): 110 µM; 1-BDC [2]: 0.12; Pandda run, overall: Modeled ([2]; soak concentration 10 mM): TRUE; Pandda run, overall: Hit ([2]; soak concentration 10 mM): TRUE; Total number of conformations [2]: 1; 2*(1-BDC) (%) [2]: 24%; X-ray crystallography: Binding site ([2]; site where the ligand is bound in the X-ray crystal structure): Adenosine; PanDDA run, DMSO background map: 1-BDC ([2]; soak concentration 10 mM): 0.12; PanDDA run, DMSO background map: Hit ([2]; soak concentration 10 mM): TRUE; PanDDA run, TFA/DMSO background map: 1-BDC ([2]; soak concentration 10 mM): 0.12; PanDDA run, TFA/DMSO background map: Hit ([2]; soak concentration 10 mM): TRUE
Cc1c[nH]c2ncnc(NCC3(O)CCC3)c12 [AVI-3571, 1-(((5-methyl-7H-pyrrolo[2,3-d]pyrimidin-4-yl)amino)methyl)cyclobutan-1-ol] | – | – | 1 | – | – | Hill slope ([1]; HTRF dose-response fit, Mac1): 1.0; Ligand efficiency (binding enery per heavy atom) ([1]; SARS CoV-2 macrodomain HTRF assay): 0.39; Hill slope ([1]; SARS CoV-2 macrodomain HTRF assay, dose-response): 1.0; IC50 ([1]; SARS CoV-2 macrodomain HTRF assay, dose-response, read-out: IC50): 15 µM; Ki ([1]; SARS CoV-2 macrodomain HTRF assay, dose-response, read-out: Ki): 14 µM; 1-BDC [2]: 0.15; X-ray crystal structure ([2]; X-ray crystal structure determined (TRUE)): TRUE; Pandda run, overall: Modeled ([2]; soak concentration 10 mM): TRUE; Pandda run, overall: Hit ([2]; soak concentration 10 mM): TRUE; Total number of conformations [2]: 2; 2*(1-BDC) (%) [2]: 30%; Binding site ([2]; site of ligand in X-ray crystal structure): Adenosine; PanDDA run, DMSO background map: 1-BDC ([2]; soak concentration 10 mM): 0.15 and 0.2; PanDDA run, DMSO background map: Hit ([2]; soak concentration 10 mM): TRUE; Isomers modeled ([2]; stereoisomer(s) of ligand modeled in Mac1 crystal structure): achiral,achiral
CCC(Nc1ncnc2[nH]ccc12)C(C)O (stereo not drawn) [AVI-3635] | 54% | 54% | 1 | 0.08 | TRUE | PanDDA run, TFA/DMSO background map: 1-BDC ([2]; soak concentration 10 mM): 0.11; PanDDA run, TFA/DMSO background map: Hit ([2]; soak concentration 10 mM): TRUE
OCC(CC(F)(F)F)Nc1ncnc2[nH]ccc12 (stereo not drawn) [AVI-3637] | 50% | 50% | 1 | – | – | PanDDA run, TFA/DMSO background map: 1-BDC ([2]; soak concentration 10 mM): 0.21; PanDDA run, TFA/DMSO background map: Hit ([2]; soak concentration 10 mM): TRUE
OCC(Nc1ncnc2[nH]ccc12)C1CCC1 (stereo not drawn) [AVI-3638] | 77% | 77% | 1 | 0.1 | TRUE | –
O=C(O)C(F)(F)F.O[C@H]1CCC[C@@H]1Nc1ncnc2[nH]ccc12 [AVI-3639] | 74% | 74% | 1 | 0.09 | TRUE | –
OCC(CC1CCC1)Nc1ncnc2[nH]ccc12 (stereo not drawn) [AVI-3641] | 32% | 32% | 1 | 0.11 | TRUE | –
OCC(CC(O)c1ccccc1)Nc1ncnc2[nH]ccc12 (stereo not drawn) [AVI-3642] | < 10% | < 10% | 1 | 0.17 | TRUE | –
CCC(CO)Nc1ncnc2[nH]ccc12 (stereo not drawn) [AVI-3643] | 63% | 63% | 1 | 0.14 | TRUE | –
C#CCC(CO)Nc1ncnc2[nH]ccc12 (stereo not drawn) [AVI-3644] | 43% | 43% | 1 | 0.11 | TRUE | –
OC1CCCN(c2ncnc3[nH]ccc23)C1 (stereo not drawn) [AVI-3646] | 20% | 20% | 1 | 0.13 | TRUE | –
CC(C)(C)CC(CO)Nc1ncnc2[nH]ccc12 (stereo not drawn) [AVI-3648] | 27% | 27% | 1 | 0.16 | TRUE | –
OCC(Nc1ncnc2[nH]ccc12)C1CCCC1 (stereo not drawn) [AVI-3649] | 68% | 68% | 1 | 0.11 | TRUE | –
Cc1c[nH]c2ncnc(NCC3(O)CCC(O)CC3)c12 (stereo not drawn) [AVI-4329] | – | – | – | – | – | Number of isomers bound [2, 6]: 1; Isomers modeled ([2]; stereoisomer(s) modeled in Mac1 crystal structure): rr,rr
CC(C)(C)C1CCCN1c1ncnc2[nH]ccc12 (stereo not drawn) [AVI-6000] | – | – | – | – | – | Number of isomers bound [2, 6]: 1
